Laboratory results as given in ChEMBL document CHEMBL1255286, “In Vitro activity of the new azole isavuconazole (BAL4815) compared with six other antifungal agents against 162 Cryptococcus neoformans isolates from Cuba” (2008).
In brackets after ≈: the same amount, converted by molar mass.

Columns and labels:
[1] = tested on: Naganishia albida; assay: Antimicrobial activity against Cryptococcus albidus by broth microdilution method; type: functional
[2] = tested on: Cryptococcus neoformans; assay: Antimicrobial activity against Cryptococcus neoformans var. grubii clinical isolate by broth microdilution method; type: functional
[3] = tested on: Cryptococcus albidosimilis; assay: Antimicrobial activity against Cryptococcus albidosimilis by broth microdilution method; type: functional; settings: Naganishia albidosimilis
[4] = tested on: Cryptococcus gattii species complex; assay: Antimicrobial activity against Cryptococcus gattii by broth microdilution method; type: functional, Cryptococcus bacillisporus
[5] = tested on: Cryptococcus neoformans; assay: Antimicrobial activity against Cryptococcus neoformans var. grubii obtained from non-AIDS patient by broth microdilution method; type: functional
[6] = tested on: Cryptococcus neoformans; assay: Antimicrobial activity against Cryptococcus neoformans var. grubii by broth microdilution method; type: functional
[7] = tested on: Cryptococcus neoformans; assay: Antimicrobial activity against Cryptococcus neoformans var. grubii obtained from AIDS patient by broth microdilution method; type: functional

Row | SMILES | MIC50 [1] | MIC90 [1] | MIC50 [2] | MIC90 [2] | MIC50 [3] | MIC90 [3] | MIC50 [4] | MIC90 [4] | MIC50 [5] | MIC90 [5] | MIC50 [6] | MIC90 [6] | MIC50 [7] | MIC90 [7] | MIC [1] | MIC [3] | MIC [4] | MIC [6]
1 | CCC(C)n1ncn(-c2ccc(N3CCN(c4ccc(OCC5COC(Cn6cncn6)(c6ccc(Cl)cc6Cl)O5)cc4)CC3)cc2)c1=O (stereo not drawn) [ITRACONAZOLE] | 0.063 µg/mL (≈ 0.0893 µM) | 0.25 µg/mL (≈ 0.354 µM) | 0.031 µg/mL (≈ 0.0439 µM) | 0.25 µg/mL (≈ 0.354 µM) | 0.063 µg/mL (≈ 0.0893 µM) | 0.25 µg/mL (≈ 0.354 µM) | 0.063 µg/mL (≈ 0.0893 µM) | 0.25 µg/mL (≈ 0.354 µM) | 0.031 µg/mL (≈ 0.0439 µM) | 0.063 µg/mL (≈ 0.0893 µM) | 0.063 µg/mL (≈ 0.0893 µM) | 0.25 µg/mL (≈ 0.354 µM) | 0.031 µg/mL (≈ 0.0439 µM) | 0.125 µg/mL (≈ 0.177 µM) |  |  |  | 
2 | C[C@@H](c1ncncc1F)[C@](O)(Cn1cncn1)c1ccc(F)cc1F [VORICONAZOLE] | 0.063 µg/mL (≈ 0.18 µM) | 0.25 µg/mL (≈ 0.716 µM) | 0.031 µg/mL (≈ 0.0887 µM) | 0.125 µg/mL (≈ 0.358 µM) | 0.063 µg/mL (≈ 0.18 µM) | 0.25 µg/mL (≈ 0.716 µM) | 0.063 µg/mL (≈ 0.18 µM) | 0.25 µg/mL (≈ 0.716 µM) | 0.063 µg/mL (≈ 0.18 µM) | 0.063 µg/mL (≈ 0.18 µM) | 0.063 µg/mL (≈ 0.18 µM) | 0.25 µg/mL (≈ 0.716 µM) | 0.031 µg/mL (≈ 0.0887 µM) | 0.125 µg/mL (≈ 0.358 µM) |  |  |  | 
3 | OC(Cn1cncn1)(Cn1cncn1)c1ccc(F)cc1F [FLUCONAZOLE] | 4 µg/mL (≈ 13.1 µM) | 8 µg/mL (≈ 26.1 µM) | 2 µg/mL (≈ 6.53 µM) | 4 µg/mL (≈ 13.1 µM) | 4 µg/mL (≈ 13.1 µM) | 8 µg/mL (≈ 26.1 µM) | 4 µg/mL (≈ 13.1 µM) | 8 µg/mL (≈ 26.1 µM) |  |  | 4 µg/mL (≈ 13.1 µM) | 8 µg/mL (≈ 26.1 µM) | 2 µg/mL (≈ 6.53 µM) | 2 µg/mL (≈ 6.53 µM) |  |  |  | 
4 | C[C@@H](c1nc(-c2ccc(C#N)cc2)cs1)[C@](O)(Cn1cncn1)c1cc(F)ccc1F [ISAVUCONAZOLE] | 0.004 µg/mL (≈ 0.00914 µM) | 0.016 µg/mL (≈ 0.0366 µM) | 0.004 µg/mL (≈ 0.00914 µM) | 0.016 µg/mL (≈ 0.0366 µM) | 0.004 µg/mL (≈ 0.00914 µM) | 0.016 µg/mL (≈ 0.0366 µM) | 0.004 µg/mL (≈ 0.00914 µM) | 0.016 µg/mL (≈ 0.0366 µM) | 0.008 µg/mL (≈ 0.0183 µM) | 0.031 µg/mL (≈ 0.0709 µM) | 0.004 µg/mL (≈ 0.00914 µM) | 0.016 µg/mL (≈ 0.0366 µM) | 0.008 µg/mL (≈ 0.0183 µM) | 0.016 µg/mL (≈ 0.0366 µM) |  |  |  | 
5 | CC[C@@H]([C@H](C)O)n1ncn(-c2ccc(N3CCN(c4ccc(OC[C@@H]5CO[C@@](Cn6cncn6)(c6ccc(F)cc6F)C5)cc4)CC3)cc2)c1=O [POSACONAZOLE] | 0.31 µg/mL (≈ 0.442 µM) | 0.63 µg/mL (≈ 0.899 µM) | 0.004 µg/mL (≈ 0.00571 µM) | 0.016 µg/mL (≈ 0.0228 µM) | 0.31 µg/mL (≈ 0.442 µM) | 0.63 µg/mL (≈ 0.899 µM) | 0.31 µg/mL (≈ 0.442 µM) | 0.63 µg/mL (≈ 0.899 µM) | 0.063 µg/mL (≈ 0.0899 µM) | 0.125 µg/mL (≈ 0.178 µM) | 0.31 µg/mL (≈ 0.442 µM) | 0.63 µg/mL (≈ 0.899 µM) | 0.031 µg/mL (≈ 0.0442 µM) | 0.125 µg/mL (≈ 0.178 µM) | 0.016 µg/mL (≈ 0.0228 µM) | 0.016 µg/mL (≈ 0.0228 µM) | 0.016 µg/mL (≈ 0.0228 µM) | 0.016 µg/mL (≈ 0.0228 µM)
6 | C[C@@H]1[C@H](O)[C@@H](C)/C=C/C=C/C=C/C=C/C=C/C=C/C=C/[C@H](O[C@@H]2O[C@H](C)[C@@H](O)[C@H](N)[C@@H]2O)C[C@@H]2O[C@](O)(C[C@@H](O)C[C@@H](O)[C@H](O)CC[C@@H](O)C[C@@H](O)CC(=O)O[C@H]1C)C[C@H](O)[C@H]2C(=O)O [AMPHOTERICIN B] | 0.25 µg/mL (≈ 0.271 µM) | 0.5 µg/mL (≈ 0.541 µM) | 0.25 µg/mL (≈ 0.271 µM) | 0.25 µg/mL (≈ 0.271 µM) | 0.25 µg/mL (≈ 0.271 µM) | 0.5 µg/mL (≈ 0.541 µM) | 0.25 µg/mL (≈ 0.271 µM) | 0.5 µg/mL (≈ 0.541 µM) |  |  | 0.25 µg/mL (≈ 0.271 µM) | 0.5 µg/mL (≈ 0.541 µM) | 0.25 µg/mL (≈ 0.271 µM) | 0.25 µg/mL (≈ 0.271 µM) |  |  |  | 
7 | Nc1nc(=O)[nH]cc1F [FLUCYTOSINE] | 4 µg/mL (≈ 31 µM) | 8 µg/mL (≈ 62 µM) | 4 µg/mL (≈ 31 µM) | 8 µg/mL (≈ 62 µM) | 4 µg/mL (≈ 31 µM) | 8 µg/mL (≈ 62 µM) | 4 µg/mL (≈ 31 µM) | 8 µg/mL (≈ 62 µM) | 2 µg/mL (≈ 15.5 µM) | 4 µg/mL (≈ 31 µM) | 4 µg/mL (≈ 31 µM) | 8 µg/mL (≈ 62 µM) | 4 µg/mL (≈ 31 µM) | 8 µg/mL (≈ 62 µM) |  |  |  | 
